The values below come from patent US9751854B2 (Millennium Pharmaceuticals, Inc., priority 2014, dated 2017).

Molecules are shown by their SMILES. Some results are limits rather than exact numbers.

The target in the first experiment is human VPS34 (Homo sapiens (Human), UniProt Q8NEB9). Description: Human VPS34 enzyme assay (Adapta TR-FRET ADP detection). It counts as biochemical. Also on record: Percent Inhibition: dose or concentration left out as unconfirmed.
human VPS34, sequence (Q8NEB9 whole entry): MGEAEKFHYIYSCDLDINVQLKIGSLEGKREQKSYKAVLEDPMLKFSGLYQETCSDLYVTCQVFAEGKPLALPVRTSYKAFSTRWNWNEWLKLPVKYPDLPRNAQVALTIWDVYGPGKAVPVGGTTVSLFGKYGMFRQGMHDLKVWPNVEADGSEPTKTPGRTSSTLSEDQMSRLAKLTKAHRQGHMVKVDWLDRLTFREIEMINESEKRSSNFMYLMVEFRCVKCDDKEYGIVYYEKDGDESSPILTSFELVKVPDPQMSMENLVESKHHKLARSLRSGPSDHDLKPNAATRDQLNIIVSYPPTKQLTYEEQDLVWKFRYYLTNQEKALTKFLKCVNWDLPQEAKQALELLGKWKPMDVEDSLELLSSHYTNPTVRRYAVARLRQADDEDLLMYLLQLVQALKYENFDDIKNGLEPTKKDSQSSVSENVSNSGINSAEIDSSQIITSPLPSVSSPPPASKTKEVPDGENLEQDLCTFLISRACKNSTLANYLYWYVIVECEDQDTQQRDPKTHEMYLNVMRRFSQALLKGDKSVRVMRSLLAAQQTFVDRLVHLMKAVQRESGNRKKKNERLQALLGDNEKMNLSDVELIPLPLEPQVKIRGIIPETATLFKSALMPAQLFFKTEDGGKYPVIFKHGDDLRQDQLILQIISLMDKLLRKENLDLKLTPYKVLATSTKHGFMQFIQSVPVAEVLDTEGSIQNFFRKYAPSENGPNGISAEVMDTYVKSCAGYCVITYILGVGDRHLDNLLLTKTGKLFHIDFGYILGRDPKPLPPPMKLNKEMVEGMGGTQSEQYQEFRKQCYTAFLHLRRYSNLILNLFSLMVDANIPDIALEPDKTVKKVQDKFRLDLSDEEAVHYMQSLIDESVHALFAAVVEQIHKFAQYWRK
Details: not given
On the technique in general: TR-FRET usually uses a lanthanide donor and a delayed reading to cut background.
As to `CC(=O)Nc1cc(-c2cnc(C)c(NS(=O)(=O)c3nccn3C)c2)ccn1` [Compound I-92], the “Percent Inhibition” value is reported as above 99%.

Staying with this experiment, now noted: IC50 range class.
As to `CC(=O)Nc1cc(-c2cnc(N)c(C(=O)Nc3cccc(F)c3)c2)ccn1` [Compound I-82, 2′-acetamido-6-amino-N-(3-fluorophenyl)-3,4′-bipyridine-5-carboxamide], the half-maximal inhibitory concentration (IC50) (in general, the midpoint of a concentration-inhibition curve) fell in the range of 10 to 50 nM.

In turn, `CC(=O)Nc1cc(-c2cnc(C)c(N(CC3CC3)S(=O)(=O)C3CC3)c2)ccn1` [Compound I-83, N-{5-[(cyclopropylmethyl)(cyclopropylsulfonyl)amino]-6-methyl-3,4′-bipyridin-2′-yl}acetamide] had an IC50 above 100 nM.

For `CC(=O)Nc1cc(-c2cnc(C)c(NS(=O)(=O)c3ccccc3)c2)ccn1` [Compound I-84, N-{6-methyl-5-[(phenylsulfonyl)amino]-3,4′-bipyridin-2′-yl}acetamide], the IC50 is below 10 nM.

With `CC(=O)Nc1cc(-c2cnc3[nH]cc(CN(C)C)c3c2)ccn1` [Compound I-85, N-(4-{3-[(dimethylamino)methyl]-1H-pyrrolo[2,3-b]pyridin-5-yl}pyridin-2′-yl)acetamide], the half-inhibitory concentration (IC50) is above 100 nM.

Regarding `CC(=O)Nc1cc(-c2ccc(S(=O)(=O)Nc3cc(-c4ccnc(NC(C)=O)c4)cnc3C)c(F)c2)ccn1` [Compound I-86, N-(4-{4-[(2′-acetamido-6-methyl-3,4′-bipyridin-5-yl)sulfamoyl]-3-fluorophenyl}pyridin-2-yl)acetamide], the IC50 was below 10 nM.

`CC(=O)Nc1cc(-c2cnc(N)c(S(=O)(=O)N3CCCC3)c2)ccn1` [Compound I-87, N-[6-amino-5-(pyrrolidin-1-ylsulfonyl)-3,4′-bipyridin-2′-yl]acetamide] came in with an IC50 below 10 nM.

Regarding `CC(=O)Nc1cc(-c2cnc(C)c(N3CCCS3(=O)=O)c2)ccn1` [Compound I-88, N-[5-(1,1-dioxidoisothiazolidin-2-yl)-6-methyl-3,4′-bipyridin-2′-yl]acetamide], the IC50 lay within 10 to 50 nM.

In turn, `CNS(=O)(=O)c1cc(-c2ccnc(NC(C)=O)c2)cnc1N` [Compound I-89, N-[6-amino-5-(methylsulfamoyl)-3,4′-bipyridin-2′-yl]acetamide] yielded a 50% inhibitory concentration (IC50) of 10 to 50 nM.

With `CC(=O)Nc1cc(-c2cnc(C)c(NS(=O)(=O)c3ccc(C(F)(F)F)cc3)c2)ccn1` [Compound I-90, N-[6-methyl-5-({[4-trifluoromethyl)phenyl]sulfonyl}amino-3,4′-bipyridin-2′-yl]acetamide], the IC50 is below 10 nM.

In turn, `CC(=O)Nc1cc(-c2cnc(N)c(C(=O)Nc3cccnc3)c2)ccn1` [Compound I-91, 2′-acetamido-6-amino-N-(pyridin-3-yl)-3,4′-bipyridine-5-carboxamide] showed a concentration for half-maximal inhibition (IC50) below 10 nM.

In the case of `CC(=O)Nc1cc(-c2cnc3ccn(CC4CC4)c3c2)ccn1` [Compound I-93, N-{4-[1-(cyclopropylmethyl)-1H-pyrrolo[3,2-b]pyridin-6-yl]pyridin-2-yl}acetamide], the IC50 was 10 to 50 nM.

As for `CC(=O)Nc1cc(-c2cnc(N)c(S(C)(=O)=O)c2)ccn1` [Compound I-95, N-[6-amino-5-(methylsulfonyl)-3,4′-bipyridin-2′-yl]acetamide], the IC50 was 10 to 50 nM.

As for `CC(=O)Nc1cc(-c2cnc(C)c(N(C)S(C)(=O)=O)c2)ccn1` [Compound I-96, N-{6-methyl-5-[methyl(methylsulfonyl)amino]-3,4′-bipyridin-2′-yl}acetamide], the IC50 lay in the range of 10 to 50 nM.

For the compound `CC(=O)Nc1cc(-c2cnc(N)c(S(=O)(=O)Nc3cccc(Cl)c3)c2)ccn1` [Compound I-97, N-[6-amino-5-[(3-chlorophenyl)sulamoyl]-3,4′-bipyridin-2′-yl]acetamide], the half-maximal inhibitory concentration (IC50) was below 10 nM.

`CC(=O)Nc1cc(-c2cnc(N)c(S(=O)(=O)Nc3ccc4ccccc4c3)c2)ccn1` [Compound I-98, N-[6-amino-5-(2-naphthylsulfamoyl)-3,4′-bipyridin-2′-yl]acetamide]: the IC50 was 10 to 50 nM.

With `CC(=O)Nc1cc(-c2cnc(N)c(S(=O)(=O)Cc3ccc(Cl)cc3)c2)ccn1` [Compound I-99, N-[6-amino-5-[(4-chlorobenzyl)sulfonyl]-3,4′-bipyridin-2′-yl]acetamide], the half-inhibitory concentration (IC50) is 10 to 50 nM.

As to `CNc1ncc(-c2ccnc(NC(C)=O)c2)cc1S(=O)(=O)Nc1ccccc1` [Compound I-100, N-[6-(methylamino)-5-(phenylsulfamoyl)-3,4′-bipyridin-2′-yl]acetamide], the 50% inhibitory concentration (IC50) is below 10 nM.

Compound `CC(=O)Nc1cc(-c2cnc(N)c(S(=O)(=O)NC3CCCCC3)c2)ccn1` [Compound I-101, N-[6-amino-5-(cyclohexylsulfamoyl)-3,4′-bipyridin-2′-yl]acetamide] gave an IC50 below 10 nM.

In turn, `CC(=O)Nc1cc(-c2cncc(NS(=O)(=O)c3ccc(F)cc3F)c2C)ccn1` [Compound I-102, N-(5-{[(2,4-difluorophenyl)sulfonyl]amino]-4-methyl-3,4′-bipyridin-2′-yl)acetamide] had an IC50 of 10 to 50 nM.

In turn, `CC(=O)Nc1cc(-c2cnc3[nH]cc(S(=O)(=O)N4CCN(C)CC4)c3c2)ccn1` [Compound I-103, N-(4-{3-[(4-methylpiperazin-1-yl)sulfonyl]-1H-pyrrolo[2,3-b]pyridin-5-yl]pyridin-2-yl)acetamide] registered a 50% inhibitory concentration (IC50) below 10 nM.

The compound `COc1ncc(-c2ccnc(NC(C)=O)c2)cc1NS(=O)(=O)c1ccc(F)cc1F` [Compound I-104, N-(5-{[(2,4-difluorophenyl)sulfonyl]amino}-6-methoxy-3,4′-bipyridin-2′-yl)acetamide] yielded an IC50 below 10 nM.

The compound `CC(=O)Nc1cc(-c2cnc3cn(S(=O)(=O)C4CC4)nc3c2)ccn1` [Compound I-105, N-{4-[2-(cyclopropylsulfonyl)-2H-pyrazolo[4,3-b]pyridin-6-yl]pyridin-2-yl}acetamide] had a concentration for half-maximal inhibition (IC50) above 100 nM.

`CC(=O)Nc1cc(-c2cncc(NC(=O)Cc3ccccc3)c2)ccn1` [Compound I-106, N-(2′-acetamido-3,4′-bipyridin-5-yl)-2-phenylacetamide]: the IC50 is above 100 nM.

Compound `COc1ncc(-c2ccnc(NC(C)=O)c2)cc1S(=O)(=O)Nc1ccc(F)cc1F` [Compound I-107, N-{5-[(2,4-difluorophenyl)sulfamoyl]-6-methoxy-3,4′-bipyridin-2′-yl]acetamide] came in with an IC50 below 10 nM.

In turn, `CC(=O)Nc1cc(-c2cnc(N)c(S(=O)(=O)NCC3CC3)c2)ccn1` [Compound I-108, N-(6-amino-5-[(cyclopropylmethyl)sulfamoyl]-3,4′-bipyridin-2′-yl]acetamide] had a half-maximal inhibitory concentration (IC50) of 10 to 50 nM.

On to `CC(=O)Nc1cc(-c2cnc(C)c(NS(=O)(=O)c3ccccc3Cl)c2)ccn1` [Compound I-109, N-(5-{[(2-chlorophenyl)sulfonyl]amino]-6-methyl-3,4′-bipyridin-2′-yl)acetamide], for which the IC50 is below 10 nM.

Consider `CC(=O)Nc1cc(-c2cnc(N)c(S(=O)(=O)N(C)CC3CC3)c2)ccn1` [Compound I-110, N-{6-amino-5-[(cyclopropylmethyl)(methyl)sulfamoyl]-3,4′-bipyridin-2′-yl}acetamide], for which the IC50 is below 10 nM.

`CC(=O)Nc1cc(-c2cnc(C)c(NS(=O)(=O)c3cc(Cl)ccc3Cl)c2)ccn1` [Compound I-111, N-(5-{[(2,5-dichlorophenyl)sulfonyl]amino}-6-methyl-3,4′-bipyridin-2′-yl)acetamide] had a half-inhibitory concentration (IC50) below 10 nM.

`CC(=O)Nc1cc(-c2cnc(N(C)C)c(C(=O)Nc3ccc(F)cc3F)c2)ccn1` [Compound I-112, 2′-acetamido-N-(2,4-difluorophenyl)-6-(dimethylamino)-3,4′-bipyridine-5-carboxamide] came in with a 50% inhibitory concentration (IC50) of 50 to 100 nM.

Take `CC(=O)Nc1cc(-c2cnc(C)c(NS(=O)(=O)c3ccc(OC(F)(F)F)cc3Cl)c2)ccn1` [Compound I-113, N-[5-({[2-chloro-4-(trifluoromethoxy)phenyl]sulfonyl}amino)-6-methyl-3,4′-bipyridin-2′-yl]acetamide]: the 50% inhibitory concentration (IC50) was below 10 nM.

The compound `CC(=O)Nc1cc(-c2cnc(C)c(NS(=O)(=O)C3CC3)c2)ccn1` [Compound I-114, N-{5-[(cyclopropylsulfonyl)amino]-6-methyl-3,4′-bipyridin-2′-yl]acetamide] displayed an IC50 of 10 to 50 nM.

The compound `CC(=O)Nc1cc(-c2cnc(C)c(NC(=O)c3ccc(F)cc3F)c2)ccn1` [Compound I-115, N-(2′-acetamido-6-methyl-3,4′-bipyridin-5-yl)-2,4-difluorobenzamide] returned an IC50 above 100 nM.

Regarding `CC(=O)Nc1cc(-c2cnc3cn[nH]c3c2)ccn1` [Compound I-116, N-[4-(1H-pyrazolo[4,3-b]pyridin-6-yl)pyridin-2-yl]acetamide], the IC50 is above 100 nM.

Consider `O=C(Nc1cc(-c2cnc3[nH]ncc3c2)ccn1)C1CC1` [Compound I-117, N-[4-(1H-pyrazolo[3,4-b]pyridin-5-yl)pyridin-2-yl]cyclopropanecarboxamide], for which the half-inhibitory concentration (IC50) was 10 to 50 nM.

In the case of `CC(=O)Nc1cc(-c2cncc(S(=O)(=O)N3CCC(F)(F)C3)c2)ccn1` [Compound I-118, N-{5-[(3,3-difluoropyrrolidin-1-yl)sulfonyl]-3,4′-bipyridin-2′-yl}acetamide], the IC50 fell in the range of 10 to 50 nM.

In the case of `CC(=O)Nc1cc(-c2cnc(N)c(S(=O)(=O)N(C)C)c2)ccn1` [Compound I-119, N-[6-amino-5-(dimethylsulfamoyl)-3,4′-bipyridin-2′-yl]acetamide], the concentration for half-maximal inhibition (IC50) is below 10 nM.

As to `CCN(CC)S(=O)(=O)c1cncc(-c2ccnc(NC(C)=O)c2)c1` [Compound I-120, N-[5-(diethylsulfamoyl)-3,4′-bipyridin-2′-yl]acetamide], the IC50 was below 10 nM.

`CC(=O)Nc1cc(-c2cnc(N)c(C(=O)Nc3cc(C)cnn3)c2)ccn1` [Compound I-121, 2′-acetamido-6-amino-N-(5-methylpyridazin-3-yl)-3,4′-bipyridine-5-carboxamide] displayed an IC50 of 50 to 100 nM.

`CC(=O)Nc1cc(-c2cnc(N)c(S(=O)(=O)O)c2)ccn1` [Compound I-122, 2′-acetamido-6-amino-3,4′-bipyridine-5-sulfonic acid] displayed a 50% inhibitory concentration (IC50) of 50 to 100 nM.

The compound `COc1cccc(S(=O)(=O)Nc2cc(-c3ccnc(NC(C)=O)c3)cnc2C)c1` [Compound I-123, N-(5-{[(3-methoxyphenyl)sulfonyl]amino}-6-methyl-3,4′-bipyridin-2′-yl}acetamide] returned an IC50 below 10 nM.
